Laboratory results: US9770439B2, “Hepatitis C virus inhibitors” (priority 2013, dated 2017)

Columns and labels:
[1] = system: HCV replicon, genotype 1a Y93H variant with tyrosine 93 changed to histidine in the NS5A protein; type: cell-based; conditions: genotype 1a Y93H replicon; test compound titrated with compound N47 fixed at 200 nM versus titrated singly
Method: Combinations can be examined for synergistic activity using a variety of putative NS5A-targeting compounds and a variety of test compounds. […] The test compound can be chosen from compounds exemplified below, which were prepared by methods known in the art, or from others disclosed in the literature.
Similarly, BMS-790052 can be tested singly and in combination with a fixed amount of compound N47 in the HCV replicon cell based assay consisting of the genotype 1a Y93H variant with tyrosine 93 changed to histidine in the NS5A protein.

[2] = system: HCV replicon, genotype 1a L31V variant with leucine 31 changed to valine in the NS5A protein; type: cell-based; conditions: genotype 1a L31V replicon; test compound titrated with compound N47 fixed at 200 nM versus titrated singly

Question: With `O=C(Cc1ccccc1)N1CCCC1c1nc2cc(-c3ccc4nc([C@@H]5CCCN5C(=O)Cc5ccccc5)[nH]c4c3)ccc2[nH]1` (some centres unmarked) as the molecule, how does the “Fold - Synergistic G-1a (Y93H)” value [1] read?
Answer: <10 Fold

Question: What about the “Fold - Synergistic G-1a (L31V)” value [2] of the same molecule?
Answer: <10 Fold

Question: For `CN(C)[C@@H](C(=O)N1CCC[C@H]1C(=O)Nc1cccc(-c2ncc(-c3ccc4nc([C@@H]5CCCN5C(=O)[C@@H](c5ccccc5)N(C)C)[nH]c4c3)o2)c1)c1ccccc1`, which “Fold - Synergistic G-1a (Y93H)” value [1] is on record?
Answer: 10 Fold

Question: With `Cc1nc2cccc(-c3ncc(-c4ccc5nc([C@@H]6CCCN6C(=O)[C@@H](c6ccccc6)N(C)C)[nH]c5c4)o3)c2[nH]1` as the molecule, how does the “Fold - Synergistic G-1a (L31V)” value [2] read?
Answer: >10 Fold

Question: How did the “Fold - Synergistic G-1a (Y93H)” value [1] turn out when `COC(=O)N[C@H](C(=O)N1CCCC1c1nc2ccc(C#CC#Cc3ccc4nc([C@@H]5CCCN5C(=O)[C@@H](NC(=O)OC)C(C)C)[nH]c4c3)cc2[nH]1)C(C)C` (some centres unmarked) was run?
Answer: >10 Fold

Question: What about the “Fold - Synergistic G-1a (L31V)” value [2] of the same molecule?
Answer: >100 Fold

Question: For `CC[C@H]1CC[C@@H](c2ncc(-c3ccc(-c4ccc(-c5cnc([C@@H]6CC[C@H](CC)N6C(=O)[C@@H](NC(=O)OC)C(C)C)[nH]5)cc4)cc3)[nH]2)N1C(=O)C(NC(=O)OC)C(C)C` (some centres unmarked), which “Fold - Synergistic G-1a (Y93H)” value [1] is on record?
Answer: >100 Fold

Question: And the “Fold - Synergistic G-1a (L31V)” value [2]?
Answer: >100 Fold

Question: Which results are given for `COC(=O)N[C@H](C(=O)N1[C@@H]2C[C@@H]2C[C@H]1c1ncc(-c2ccc(C#Cc3ccc(-c4cnc([C@@H]5C[C@H]6C[C@H]6N5C(=O)[C@@H](NC(=O)OC)C(C)C)[nH]4)cc3)cc2)[nH]1)C(C)C`?
Answer: Fold - Synergistic G-1a (Y93H) [1]: >10 Fold; Fold - Synergistic G-1a (L31V) [2]: <10 Fold

Question: For `COC(=O)N[C@H](C(=O)N1CC[C@H](C)C1c1ncc(-c2ccc(-c3ccc(-c4cnc([C@@H]5[C@@H](C)CCN5C(=O)[C@@H](NC(=O)OC)C(C)C)[nH]4)cc3)cc2)[nH]1)C(C)C` (some centres unmarked), which “Fold - Synergistic G-1a (Y93H)” value [1] is on record?
Answer: >100 Fold

Question: What about the “Fold - Synergistic G-1a (L31V)” value [2] of the same molecule?
Answer: >100 Fold

Question: Which results are given for `COC(=O)N[C@H](C(=O)N1CCCC1c1ncc(C#Cc2ccc3cc(C#Cc4cnc([C@@H]5CCCN5C(=O)[C@@H](NC(=O)OC)C(C)C)[nH]4)ccc3c2)[nH]1)C(C)C` (some centres unmarked)?
Answer: Fold - Synergistic G-1a (Y93H) [1]: <10 Fold; Fold - Synergistic G-1a (L31V) [2]: >10 Fold

Question: For `COC(=O)N[C@H](C(=O)CN1C(c2ncc(-c3ccc(C#Cc4ccc5c(ccc6[nH]c([C@@H]7C[C@H]8C[C@H]8N7C(=O)[C@@H](NC(=O)OC)C(C)C)nc65)c4)cc3)[nH]2)C[C@H]2C[C@H]21)C(C)C` (some centres unmarked), which “Fold - Synergistic G-1a (Y93H)” value [1] is on record?
Answer: >10 Fold

Question: What about the “Fold - Synergistic G-1a (L31V)” value [2] of the same molecule?
Answer: <10 Fold

Question: For `COC(=O)N[C@H](C(=O)CN1[C@@H]2C[C@@H]2C[C@H]1c1nc2ccc3cc(C#Cc4ccc5c(ccc6nc([C@@H]7C[C@H]8C[C@H]8N7C(=O)[C@@H](NC(=O)OC)C(C)C)[nH]c65)c4)ccc3c2[nH]1)C(C)C`, which “Fold - Synergistic G-1a (Y93H)” value [1] is on record?
Answer: >10 Fold

Question: What about the “Fold - Synergistic G-1a (L31V)” value [2] of the same molecule?
Answer: >10 Fold

Question: Which “Fold - Synergistic G-1a (Y93H)” value [1] does the source give for `COC(=O)N[C@H](C(=O)N1CCCC1c1nc2ccc(-c3ccc4cc(-c5ccc6nc([C@@H]7CCCN7C(=O)[C@@H](NC(=O)OC)C(C)C)[nH]c6c5)ccc4n3)cc2[nH]1)C(C)C` (some centres unmarked) here?
Answer: >10 Fold

Question: What about the “Fold - Synergistic G-1a (L31V)” value [2] of the same molecule?
Answer: >10 Fold

Question: What does the source list for `COC(=O)N[C@H](C(=O)N1C2CC2CC[C@H]1c1ncc(-c2ccc(-c3ccc(-c4cnc([C@@H]5CCC6CC6N5C(=O)[C@@H](NC(=O)OC)C(C)C)[nH]4)cc3)cc2)[nH]1)C(C)C` (some centres unmarked)?
Answer: Fold - Synergistic G-1a (Y93H) [1]: >100 Fold; Fold - Synergistic G-1a (L31V) [2]: >100 Fold

Question: For `COC(=O)N[C@H](C(=O)N1[C@@H]2C[C@@H]2C[C@H]1C(=O)Nc1ccc(C23CCC4C5CC6(c7ccc(NC(=O)[C@@H]8C[C@H]9C[C@H]9N8C(=O)[C@@H](NC(=O)OC)C(C)C)cc7)CC4C(C2)C(C6)C5C3)cc1)C(C)C`, which “Fold - Synergistic G-1a (Y93H)” value [1] is on record?
Answer: <10 Fold

Question: What about the “Fold - Synergistic G-1a (L31V)” value [2] of the same molecule?
Answer: <10 Fold

Question: Which “Fold - Synergistic G-1a (Y93H)” value [1] does the source give for `COC(=O)N[C@H](C(=O)N1C(c2ncc(-c3ccc(-c4ccc(-c5cnc([C@@H]6CCC7CC7N6C(=O)[C@@H](NC(=O)OC)C(C)C)[nH]5)cc4)cc3)[nH]2)CCC2CC21)C(C)C` (some centres unmarked) here?
Answer: >100 Fold

Question: What about the “Fold - Synergistic G-1a (L31V)” value [2] of the same molecule?
Answer: >100 Fold
